The test system of one experiment is angiotensin II. As to conditions: as reported; cited from earlier work.
The next experiment addresses T1, A-II receptor (Bos taurus, UniProt P25104).
T1 construct: An A-II receptor was prepared from the membrane fraction of bovine adrenal cortex; from tissue; host or cells: bovine adrenal cortex, membrane fraction
T1 sequence (P25104 1-359): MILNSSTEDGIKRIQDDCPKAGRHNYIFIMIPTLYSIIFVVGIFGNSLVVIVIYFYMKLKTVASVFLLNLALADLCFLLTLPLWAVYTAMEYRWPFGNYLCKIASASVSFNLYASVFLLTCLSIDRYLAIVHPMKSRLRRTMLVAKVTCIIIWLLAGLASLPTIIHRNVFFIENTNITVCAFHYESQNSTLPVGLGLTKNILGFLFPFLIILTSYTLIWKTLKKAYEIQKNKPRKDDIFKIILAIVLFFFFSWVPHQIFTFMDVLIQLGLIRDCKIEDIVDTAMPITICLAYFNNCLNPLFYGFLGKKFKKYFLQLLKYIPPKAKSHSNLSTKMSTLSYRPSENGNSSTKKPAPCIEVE
Nature of the experiment: Inhibition of binding of angiotensin-II to angiotensin receptor (radioreceptor assay, 125I-A-II). Further details: species or system bovine (membrane fraction of bovine adrenal cortex). The note with it: for inhibition at 10 µM: read-out: Radioreceptor assay, inhibition of A-II binding, 1 × 10^-5 M; for inhibition at 1 µM: read-out: Radioreceptor assay, inhibition of A-II binding, 1 × 10^-6 M. Here is the method:
Inhibition of binding of angiotensin-II to angiotensin receptor
An A-II receptor was prepared from the membrane fraction of bovine adrenal cortex.

The test system of another experiment is pressor action of A-II. Briefly: Inhibitory effect on pressor action of A-II (oral drug, i.v. A-II 100 ng/kg). The experiment is classed as in vivo, Jcl:SD rats (9 week old, male). The note with it: Rattus norvegicus, po, rats, A-II 100 ng/kg i.v.; for inhibition in vivo at 3 mg/kg: 3 mg/kg p.o., read-out: Pressor response to A II (p.o.), 3 mg/kg (percent inhibition); for inhibition in vivo at 30 mg/kg: 30 mg/kg p.o., read-out: Pressor response to A II (p.o.), 30 mg/kg (percent inhibition). From the text:
Inhibitory effect of the compound of this invention on pressor action of A-II
Jcl:SD rats (9 week old, male) were used. On the day prior to that of the experiment, these animals were applied with cannulation into the femoral artery and vein under anesthesia with pentobarbital Na. The animals were fasted but allowed free access to drinking water until the experiment was started. On the day of conducting the experiment, the artery cannula was connected with a blood-pressure transducer, and the average blood pressure was recorded by means of polygraph. […] The drugs were orally administered, and then, at each point of the measurement, A-II was administered intravenously, and the pressor action was similarly measured. By comparing the pressor action before and after administration of the drug, the percent inhibition by the drug on A-II-induced pressor action was evaluated.

The mark [1] stands for this setting: 1 × 10^-5 M, bovine adrenal cortex membrane, 125I-A-II, 1 h room temperature.
Setting [2] is: 1 × 10^-6 M, bovine adrenal cortex membrane, 125I-A-II, 1 h room temperature.

These results are taken from patent publication US5250554A, “Benzimidazole derivatives useful as angiotensin II inhibitors” (Takeda Chemical Industries, Ltd., priority 1989, dated 1993).

By inhibition is commonly meant the relative decrease from the control value, in per cent.

Where a name gives a salt, the structure may show the parent alone. Read-outs that look alike come from different tables or passages of the source. Bounds are passed on as bounds.

As to [Sar^1, Ala^8 ]AII, the “angiotensin II antagonism” value in the experiment with angiotensin II is given as “potent angiotensin II antagonism”.

With `CCCCc1nc2cccc(COC)c2n1Cc1ccc(-c2ccccc2-c2nnn[nH]2)cc1` [Working Example 19, 2-butyl-7-methoxymethyl-1-[[2'-(1H-tetrazol-5-yl)biphenyl-4-yl]methyl]benzimidazole sodium salt], on A-II receptor, the inhibition at 10 µM was 90% and the inhibition at 1 µM is 60%. In the experiment on pressor action of A-II, the inhibition in vivo at 3 mg/kg was in the range of 30 to 50%.

As to `CCCCc1nc2ccc(OC)cc2n1Cc1ccc(-c2ccccc2-c2nn[nH]n2)cc1` [compound 19, reference compound], the inhibition at 10 µM at A-II receptor (setting [1]) came out at 88%. The inhibition at 1 µM on A-II receptor (setting [2]) came out at 47%. Moreover, the inhibition in vivo at 3 mg/kg in the experiment on pressor action of A-II was below 30%.

For `CCCCc1nc2cccc(CC(=O)OCC)c2n1Cc1ccc(-c2ccccc2-c2nn[nH]n2)cc1` [Working Example 17, Ethyl [[2-butyl-1-[2'-(1H-tetrazol-5-Yl)biphenyl-4-yl]methyl]benzimidazol-7-yl]acetate], the inhibition at 10 µM on A-II receptor (setting [1]) came to 93%. Also, on A-II receptor (setting [2]), the inhibition at 1 µM turned out to be 75%. Further, the inhibition in vivo at 3 mg/kg in the experiment on pressor action of A-II lay in the range of 30 to 50%.

For `CCCCc1nc2cc(C)cc(C(=O)O)c2n1Cc1ccc(-c2ccccc2-c2nn[nH]n2)cc1` [Working Example 10, 2-Butyl-5-methyl-1-[[2,-(1H-tetrazol-5-yl)biphenyl-4-yl]methyl]benzimidazole-7-carboxylic acid], the inhibition at 10 µM at A-II receptor (setting [1]) was 90%. Besides, the inhibition at 1 µM on A-II receptor (setting [2]) turned out to be 40%. Besides, in the experiment on pressor action of A-II, the inhibition in vivo at 3 mg/kg was above 70% and the inhibition in vivo at 30 mg/kg was above 70%.

With `CCCCc1nc2cccc(CO)c2n1Cc1ccc(-c2ccccc2-c2nnn[nH]2)cc1` [Working Example 16, 2-Butyl-7-hydroxymethyl-1-[[2'-(1H-tetrazol-5-yl)biphenyl-4-yl]methyl]benzimidazole], at A-II receptor (setting [1]), the inhibition at 10 µM was 90%. In addition, the inhibition at 1 µM on A-II receptor (setting [2]) stood at 67%. For the same molecule, in the experiment with pressor action of A-II, the inhibition in vivo at 30 mg/kg is above 70%.

Consider `CCCCc1nc2cc(Cl)cc(C(=O)OC)c2n1Cc1ccc(-c2ccccc2-c2nnn[nH]2)cc1` [Working Example 12, Methyl 2-butyl-5-chloro-1-[[2'-(1H-tetrazol-5-yl)biphenyl-4-yl]methyl]benzimidazole-7-carboxylate], for which the inhibition at 10 µM at A-II receptor (setting [1]) amounted to 91%. The inhibition at 1 µM on A-II receptor (setting [2]) turned out to be 65%. Besides, in the experiment with pressor action of A-II, the inhibition in vivo at 3 mg/kg lay within 50 to 70% and the inhibition in vivo at 30 mg/kg was above 70%.

As to `COCc1nc2cccc(C(=O)O)c2n1Cc1ccc(-c2ccccc2-c2nnn[nH]2)cc1` [Working Example 49, 2-Methoxymethyl-1-[[2'-(1H-tetrazol-5-yl)biphenyl-4-yl]methyl]benzimidazole-7-carboxylic acid], the inhibition at 10 µM at A-II receptor (setting [1]) stood at 73%. Also, on A-II receptor (setting [2]), the inhibition at 1 µM turned out to be 35%. In the experiment with pressor action of A-II, the inhibition in vivo at 3 mg/kg was above 70% and the inhibition in vivo at 30 mg/kg is above 70%.

Take `CNCC(=O)N[C@@H](CCCN=C(N)N)C(=O)N[C@H](C(=O)N[C@@H](Cc1ccc(O)cc1)C(=O)N[C@H](C(=O)N[C@@H](Cc1cnc[nH]1)C(=O)N1CCC[C@H]1C(=O)N[C@@H](C)C(=O)O)C(C)C)C(C)C` [saralasin]: the “angiotensin II antagonism” value in the experiment with angiotensin II was “potent angiotensin II antagonism”.

Take `CCCCc1nc2c(C(=O)OC)cccc2n1Cc1ccc(-c2ccccc2-c2nn[nH]n2)cc1` [Reference Example 29, reference compound]: the inhibition at 10 µM on A-II receptor (setting [1]) is 61%. For the same molecule, on A-II receptor (setting [2]), the inhibition at 1 µM turned out to be 6%. For the same molecule, the inhibition in vivo at 30 mg/kg in the experiment on pressor action of A-II was below 30%.
